Assay results published in patent US8981111B2 (priority 2008, dated 2015).

Experiment: log P (HPLC/MS data of the preparation examples)
Details: for log p: LC-MS, method [b]: pH 2.7 with 0.1% formic acid in water and acetonitrile, linear gradient 10% to 95% acetonitrile
[1] = reversed phase HPLC column, pH 2.7

SMILES	log p	other results
Cc1cc(C(F)(F)F)nn1CC(=O)Nc1cccc(CON=C(c2cccc(F)c2)c2nccn2C)n1 [Example 292]	2.8^[b]	–
Cn1ccnc1C(=NOCc1cccc(NC(=O)COc2ccccc2)n1)c1cccc(F)c1 [Example 293]	2.63^[b]	–
Cn1ncnc1C(=NOCc1cccc(NC(=O)Cc2ccc(F)cc2)n1)c1ccccc1 [Example 294]	3.15^[b]	–
Cn1ncnc1C(=NOCc1cccc(NC(=O)CCc2ccc(Cl)s2)n1)c1ccccc1 [Example 295]	3.74^[b]	–
Cn1ncnc1C(=NOCc1cccc(NC(=O)CCc2cc(Cl)cc(Cl)c2)n1)c1ccccc1 [Example 296]	4.29^[b]	–
COc1ccc(CCC(=O)Nc2cccc(CON=C(c3ccccc3)c3ncnn3C)n2)cc1 [Example 297]	3.25^[b]	–
COc1cccc(CCC(=O)Nc2cccc(CON=C(c3ccccc3)c3ncnn3C)n2)c1 [Example 298]	3.25^[b]	–
COc1ccccc1CCC(=O)Nc1cccc(CON=C(c2ccccc2)c2ncnn2C)n1 [Example 299]	3.44^[b]	–
Cn1ncnc1C(=NOCc1cccc(NC(=O)CCc2ccc(Cl)cc2)n1)c1ccccc1 [Example 300]	3.72^[b]	–
Cn1ncnc1C(=NOCc1cccc(NC(=O)CCc2ccccc2Cl)n1)c1ccccc1 [Example 301]	3.72^[b]	–
Cn1ncnc1C(=NOCc1cccc(NC(=O)CCc2ccc(C(F)(F)F)cc2)n1)c1ccccc1 [Example 302]	3.9^[b]	–
Cn1ncnc1C(=NOCc1cccc(NC(=O)CCc2ccccc2C(F)(F)F)n1)c1ccccc1 [Example 303]	3.87^[b]	–
Cn1ncnc1C(=NOCc1cccc(NC(=O)C2CC2c2ccccc2)n1)c1ccccc1 (centres unmarked) [Example 304]	3.61^[b]	–
C=CCCOC(=O)Nc1cccc(CON=C(c2ccccc2)c2ncnn2C)n1 [Example 305]	3.21^[b]	–
CC(C)CCC(=O)Nc1cccc(CON=C(c2ccccc2)c2ncnn2C)n1 [Example 306]	3.37^[b]	–
CCC(C)CC(=O)Nc1cccc(CON=C(c2ccccc2)c2ncnn2C)n1 (centres unmarked) [Example 307]	3.31^[b]	–
Cn1ncnc1C(=NOCc1cccc(NC(=O)CCCCCl)n1)c1ccccc1 [Example 308]	2.98^[b]	–
C#CCCCC(=O)Nc1cccc(CON=C(c2ccccc2)c2ncnn2C)n1 [Example 309]	2.7^[b]	–
C=CCCC(=O)Nc1cccc(CON=C(c2ccccc2)c2ncnn2C)n1 [Example 310]	2.77^[b]	–
Cn1ncnc1C(=NOCc1cccc(NC(=O)Cc2cccs2)n1)c1ccccc1 [Example 311]	2.98^[b]	–
Cn1c(C(=NOCc2nccc(N(C(=O)C3CC3)C(=O)C3CC3)n2)c2ccccc2)cnc1C(=O)C1CC1 [Example 312, N-(cyclopropylcarbonyl)-N-(2-{[({[2-(cyclopropylcarbonyl)-1-methyl-1H-imidazol-5-yl](phenyl)methylene}amino)oxy]methyl}pyrimidin-4-yl)cyclopropanecarboxamide]	–	chromatographic logP (HCOOH (formic acid)): 3.73
Cn1ncnc1C(=NOCc1cccc(NC(=O)Cc2cccc(Cl)c2)n1)c1ccccc1 [Example 313]	3.5^[b]	–
C=CCC(=O)Nc1cccc(CON=C(c2ccccc2)c2ncnn2C)n1 [Example 314]	2.51^[b]	–
CC(C)COC(=O)Nc1cccc(CON=C(c2ccccc2)c2ncnn2C)n1 [Example 316]	3.52^[b]	–
CC(C)CCOC(=O)Nc1cccc(CON=C(c2ccccc2)c2ncnn2C)n1 [Example 317]	3.9^[b]	–
CCCCCC(=O)Nc1cccc(CON=C(c2ccccc2)c2ocnc2C)n1 [Example 320, N-{6-[({[(4-methyl-1,3-oxazol-5-yl)(phenyl)methylene]amino}oxy)methyl]pyridin-2-yl}hexanamide]	–	chromatographic logP [1]: 3.94
CCCCCOC(=O)Nc1nc(CON=C(c2ccccc2)c2ocnc2C)cs1 [Example 321, pentyl{4-[({[(4-methyl-1,3-oxazol-5-yl)(phenyl)methylene]amino}oxy)methyl]-1,3-thiazol-2-yl}carbamate]	–	chromatographic logP [1]: 4.09

SMILES	log p	other results
CCC(C)COC(=O)Nc1cccc(CON=C(c2ccccc2)c2nccn2C)n1 (centres unmarked) [Example 324]	2.52^[b]	–
CC(C)COC(=O)Nc1cccc(CON=C(c2ccccc2)c2nccn2C)n1 [Example 325]	2.21^[b]	–
CC(C)CCOC(=O)Nc1cccc(CON=C(c2ccccc2)c2nccn2C)n1 [Example 326]	2.51^[b]	–
Cn1ccnc1C(=NOCc1cccc(NC(=O)OCC(Cl)(Cl)Cl)n1)c1ccccc1 [Example 327]	2.45^[b]	–
C=CCCOC(=O)Nc1cccc(CON=C(c2ccccc2)c2nccn2C)n1 [Example 328]	2.02^[b]	–
CC(C)CCC(=O)Nc1cccc(CON=C(c2ccccc2)c2nccn2C)n1 [Example 329]	2.15^[b]	–
C#CCOC(=O)Nc1cccc(CON=C(c2ccccc2)c2nccn2C)n1 [Example 330]	1.66^[b]	–
Cn1ccnc1C(=NOCc1cccc(NC(=O)CCc2ccc(Cl)s2)n1)c1ccccc1 [Example 331]	2.49^[b]	–
C#CCCOC(=O)Nc1cccc(CON=C(c2ccccc2)c2nccn2C)n1 [Example 332]	1.78^[b]	–
CC(C(=O)Nc1cccc(CON=C(c2ccccc2)c2nccn2C)n1)c1ccccc1 (centres unmarked) [Example 333]	2.21^[b]	–
CCCCSC(=O)Nc1cccc(CON=C(c2ccccc2)c2nccn2C)n1 [Example 334]	2.58^[b]	–
Cn1ccnc1C(=NOCc1cccc(NC(=O)CCc2ccc(Cl)s2)n1)c1cccc(F)c1 [Example 335]	2.77^[b]	–
C#CCCOC(=O)Nc1cccc(CON=C(c2cccc(F)c2)c2nccn2C)n1 [Example 336]	1.98^[b]	–
COC(C(=O)Nc1cccc(CON=C(c2ccccc2)c2nccn2C)n1)c1ccccc1 (centres unmarked) [Example 337]	2.15^[b]	–
Cn1ccnc1C(=NOCc1cccc(NC(=O)C2CCCCO2)n1)c1ccccc1 (centres unmarked) [Example 338]	1.93^[b]	–
COCCOC(=O)Nc1cccc(CON=C(c2ccccc2)c2nccn2C)n1 [Example 339]	1.34^[b]	–
Cn1ccnc1C(=NOCc1cccc(NC(=O)C2CCCCO2)n1)c1cccc(F)c1 (centres unmarked) [Example 340]	2.17^[b]	–
COCCOC(=O)Nc1cccc(CON=C(c2cccc(F)c2)c2nccn2C)n1 [Example 341]	1.66^[b]	–
CCCCSC(=O)Nc1cccc(CON=C(c2cccc(F)c2)c2nccn2C)n1 [Example 342]	2.88^[b]	–
Cn1ccnc1C(=NOCc1cccc(NC(=O)OCCF)n1)c1cccc(F)c1 [Example 343]	1.75^[b]	–
CCC(C)COC(=O)Nc1cccc(CON=C(c2cccc(F)c2)c2nccn2C)n1 (centres unmarked) [Example 344]	2.82^[b]	–
CC(C)COC(=O)Nc1cccc(CON=C(c2cccc(F)c2)c2nccn2C)n1 [Example 345]	2.51^[b]	–
CC(C)CCOC(=O)Nc1cccc(CON=C(c2cccc(F)c2)c2nccn2C)n1 [Example 346]	2.82^[b]	–
Cn1ccnc1C(=NOCc1cccc(NC(=O)OCC(Cl)(Cl)Cl)n1)c1cccc(F)c1 [Example 347]	2.73^[b]	–
CC(C)CCC(=O)Nc1cccc(CON=C(c2cccc(F)c2)c2nccn2C)n1 [Example 348]	2.42^[b]	–
COC(C(=O)Nc1cccc(CON=C(c2cccc(F)c2)c2nccn2C)n1)c1ccccc1 (centres unmarked) [Example 349]	2.42^[b]	–
